Data on 6 compounds can be found in US12662451B2, “Chemical compounds and uses thereof” (GLAXOSMITHKLINE INTELLECTUAL PROPERTY (NO.4) LIMITED, priority 2023, dated 2026).

Structures are written as SMILES. Like-named read-outs stand apart in the source and are kept apart here.

The subject of series [1] is SW48 human colorectal cancer cells. Nature of the series: Calculated free drug potency in SW48 cell assay, corrected with media free fraction (Example C). The note with it: for CC50: Homo sapiens, SW48, SW48 pCC50 corrected with measured free fraction in cell assay media; for Free Drug SW48 pCC50: SW48 pCC50 corrected with measured free fraction in cell assay media. Format: cell-based. Here is the method: (§1) It was observed that the compounds of the present disclosure are bound to cell assay media to various degrees, which would affect the cellular potency analysis in Example B. To measure free drug potency, concentrations used in the cell assays were corrected with the measured free fraction determined in the cell assay media. Compounds were incubated in a rapid equilibrium dialysis (RED) at a nominal concentration of 1 μM, using a dialysis buffer of phosphate-buffered saline (PBS, 100 mM sodium phosphate+150 mM sodium chloride, pH 7.4). The test compound was spiked into the medium. Aliquots were added to the donor wells of a RED plate in triplicate, and blank PBS was added to each receiver well, at volumes recommended by the manufacturer. Plates were incubated with shaking at 200 rpm for 4 hours at 37° C. The resultant samples were analysed by LC-MS/MS using a specific and sensitive method. Results were reported as analyte:internal standard peak area ratios (PARs), and the percent unbound was calculated with the following equation:
(§2) [formula] where Cfinal=PAR in the T=240 minute sample; Cinitial=PAR in the T=0 minute sample. Cell culture media unbound percentage and calculated free drug potency of selected compounds along with their measured potency from Example B are shown in Table 3.

The test system of series [2] is SW48 human colorectal cancer cells (MSI-H cancer cells). In words: SW48 cell viability, CellTiter-Glo, 120 hours (Example B). The note with it: for CC50: Homo sapiens. In general terms: In ATP-based viability assays light output follows the ATP content of the culture.
In series [3] the target is T1, recombinant full-length WRN protein (1-1432) (Homo sapiens, UniProt Q14191).
T1 construct: recombinant full-length WRN protein (1-1432)
T1 sequence (Q14191 whole entry): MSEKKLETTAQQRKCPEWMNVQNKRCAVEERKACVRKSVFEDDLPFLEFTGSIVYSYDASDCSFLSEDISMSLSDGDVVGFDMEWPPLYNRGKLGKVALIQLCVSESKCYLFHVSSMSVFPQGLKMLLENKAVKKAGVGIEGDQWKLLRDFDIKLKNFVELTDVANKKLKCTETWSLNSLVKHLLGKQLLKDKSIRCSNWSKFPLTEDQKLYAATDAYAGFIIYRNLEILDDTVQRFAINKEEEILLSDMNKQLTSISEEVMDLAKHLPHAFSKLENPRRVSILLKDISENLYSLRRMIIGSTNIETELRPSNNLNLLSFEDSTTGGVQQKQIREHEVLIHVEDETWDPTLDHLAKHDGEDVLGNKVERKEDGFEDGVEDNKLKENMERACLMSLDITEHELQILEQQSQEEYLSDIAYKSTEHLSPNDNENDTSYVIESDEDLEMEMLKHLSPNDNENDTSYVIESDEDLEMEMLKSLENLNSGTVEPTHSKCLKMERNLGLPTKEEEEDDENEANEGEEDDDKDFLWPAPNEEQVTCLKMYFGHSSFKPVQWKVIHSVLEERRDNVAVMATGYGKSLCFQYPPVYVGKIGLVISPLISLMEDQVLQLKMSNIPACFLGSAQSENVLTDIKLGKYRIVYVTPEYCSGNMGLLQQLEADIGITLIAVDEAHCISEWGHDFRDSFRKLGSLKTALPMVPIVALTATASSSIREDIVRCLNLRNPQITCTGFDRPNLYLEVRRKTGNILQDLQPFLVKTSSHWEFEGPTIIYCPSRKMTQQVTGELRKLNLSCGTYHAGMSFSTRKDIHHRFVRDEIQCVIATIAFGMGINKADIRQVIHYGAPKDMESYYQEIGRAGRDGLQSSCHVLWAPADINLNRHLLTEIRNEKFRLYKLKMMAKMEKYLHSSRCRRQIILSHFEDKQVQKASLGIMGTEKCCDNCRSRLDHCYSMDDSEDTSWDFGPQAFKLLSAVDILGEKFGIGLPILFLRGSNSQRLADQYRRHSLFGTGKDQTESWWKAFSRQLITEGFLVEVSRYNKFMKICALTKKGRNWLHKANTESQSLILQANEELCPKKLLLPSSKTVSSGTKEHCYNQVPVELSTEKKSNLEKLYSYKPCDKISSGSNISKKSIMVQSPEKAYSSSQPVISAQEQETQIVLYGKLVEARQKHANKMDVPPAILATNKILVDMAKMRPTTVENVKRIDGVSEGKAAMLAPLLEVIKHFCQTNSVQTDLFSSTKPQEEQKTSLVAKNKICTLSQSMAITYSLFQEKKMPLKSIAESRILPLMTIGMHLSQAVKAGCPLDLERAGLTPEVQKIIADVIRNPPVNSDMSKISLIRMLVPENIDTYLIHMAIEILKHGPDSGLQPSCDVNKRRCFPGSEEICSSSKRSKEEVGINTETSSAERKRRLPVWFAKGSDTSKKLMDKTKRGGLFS
Nature of the series: WRN unwinding activity, fluorogenic 384-well assay (Example A). Format: biochemical. Conditions: WRN unwinding activity, Table 2; for IC50: 4 hr, read-out: 4 hr UNW pIC50 (converted). Put shortly: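 Read-out is end-point unwinding of a fluorophore/quencher duplex (ex 525, em 598 nm) after 60 min with 200 μM ATP and 12 nM DNA (2× stocks), EDTA stop. Compound first sat 4 h with 200 pM WRN (2× stock) in pH 8.0 Tris buffer; four-parameter fit gives pIC50.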

Series [4] can be described thus: Cell culture media unbound percentage and stability by rapid equilibrium dialysis (Example C). Conditions: bovine, cell assay medium (RPMI-1640 with 10% fetal bovine serum), pH 7.4, rapid equilibrium dialysis, 4 hours at 37° C., read-out: Cell Culture Media Binding (% unbound). Format: in vitro ADME. The procedure:
as §1
[formula] where D=the matrix dilution factor (D=1 for media); Apparent Fu=Crec/Cdon; Crec=PAR in receiver samples; Cdon=PAR in donor samples. Percent stability was calculated by:
as §2
(In general: In equilibrium dialysis free small molecules cross a membrane that holds back macromolecules.)

[5] abbreviates: SW48, 120 h, read-out: SW48 pCC50, SW48 cell viability, 120 hours incubation (converted), Table 2.
Setting [6] is: SW48, read-out: SW48 pCC50, measured potency from Example B, as repeated in Table 3 (converted).
[7] abbreviates: SW48 cell viability, 120 hours incubation, Table 2.
The mark [8] stands for this setting: measured potency from Example B, as repeated in Table 3.

For the compound `COc1cccc(S(=O)(=O)N(C)c2ccc([C@H]3CCC[C@@H](C(=O)Nc4ccc(C(F)(F)F)cc4F)[C@@H]3C(=O)O)cc2)c1` (racemic) [Example 82], the CC50 in series [1] is 74.1 nM; in series [2] (setting [5]) it was 5010 nM; in series [2] (setting [6]), 5010 nM. The IC50 in series [3] was 5.01 nM. Further, the fraction unbound at 4 h, 1 µM in series [4] came out at 0.0147.

For the compound `CO[C@@H]1C[C@H](C(=O)Nc2ccc(C(F)(F)F)cc2F)[C@@H](C(=O)O)[C@H](c2ccc(N(C)S(=O)(=O)c3ccc4c(c3)nc(C)n4C)cc2)C1` (relative stereo) [Example 148, rel-(1R,2R,4R,6S)-2-((2-fluoro-4-(trifluoromethyl)phenyl)carbamoyl)-4-methoxy-6-(4-((N,1,2-trimethyl-1H-benzo[d]imidazole)-5-sulfonamido)phenyl)cyclohexane-1-carboxylic acid], the CC50 in series [1] is 25.7 nM; in series [2] (setting [5]), 200 nM; in series [2] (setting [6]) it was 200 nM. For the same compound, the IC50 in series [3] was 1.26 nM. The fraction unbound at 4 h, 1 µM in series [4] came to 0.129.

Consider `Cc1nc2cc(S(=O)(=O)N(C)c3ccc([C@H]4C[C@H](N5CCC(F)(F)CC5)C[C@@H](C(=O)Nc5ccc(C(F)(F)F)cc5F)[C@@H]4C(=O)O)cc3)ccc2n1C` (relative stereo) [Example 342, rel-(1R,2R,4S,6S)-4-(4,4-difluoropiperidin-1-yl)-2-((2-fluoro-4-(trifluoromethyl)phenyl)carbamoyl)-6-(4-((N,1,2-trimethyl-1H-benzo[d]imidazole)-5-sulfonamido)phenyl)cyclohexane-1-carboxylic acid], for which the CC50 in series [1] was 389 nM; in series [2] (setting [5]), 6310 nM; in series [2] (setting [6]), 6310 nM. Moreover, the fraction unbound at 4 h, 1 µM in series [4] stood at 0.0623.

With `Cc1nc2cc(S(=O)(=O)N(C)c3ccc([C@H]4C[C@@H](O[C@H]5CCOC5)C[C@@H](C(=O)Nc5ccc(C(F)(F)F)cc5F)[C@@H]4C(=O)O)cc3)ccc2n1C` (stereo in doubt) [Example 324, (1R*,2R*,4R*,6S*)-2-((2-fluoro-4-(trifluoromethyl)phenyl)carbamoyl)-4-(((S)-tetrahydrofuran-3-yl)oxy)-6-(4-((N,1,2-trimethyl-1H-benzo[d]imidazole)-5-sulfonamido)phenyl)cyclohexane-1-carboxylic acid], in series [1], the “Free Drug SW48 pCC50” value was 5.60. Also, the “SW48 pCC50” value in series [2] (setting [7]) and in series [2] (setting [8]) was 5.1 each time. Besides, the “4 hr UNW pIC50” value in series [3] came out at 7.2.

Regarding `CN(c1ccc([C@H]2CCC[C@@H](C(=O)Nc3ccc(C(F)(F)F)cc3F)[C@@H]2C(=O)O)cc1)S(=O)(=O)c1ccc(-c2ccn(C)n2)cc1` [Example 99, (1R,2R,6S)-2-((2-fluoro-4-(trifluoromethyl)phenyl)carbamoyl)-6-(4-((N-methyl-4-(1-methyl-1H-pyrazol-3-yl)phenyl)sulfonamido)phenyl)cyclohexane-1-carboxylic acid], the “Free Drug SW48 pCC50” value in series [1] is reported as 7.77. Moreover, the “SW48 pCC50” value in series [2] (setting [7]) and in series [2] (setting [8]) was 6.1 each time. Also, the “4 hr UNW pIC50” value in series [3] was 8.6.

Consider `CN(c1ccc([C@H]2CCC[C@@H](C(=O)Nc3ccc(C(F)(F)F)cc3F)[C@@H]2C(=O)O)cc1)S(=O)(=O)c1cc(I)c2occc2c1` [Example 117, (1R,2R,6S)-2-((2-fluoro-4-(trifluoromethyl)phenyl)carbamoyl)-6-(4-((7-iodo-N-methylbenzofuran)-5-sulfonamido)phenyl)cyclohexane-1-carboxylic acid], for which, in series [1], the “Free Drug SW48 pCC50” value is 8.36. Besides, the CC50 in series [2] (setting [5]) is 3980 nM. In addition, the “SW48 pCC50” value in series [2] (setting [8]) amounted to 5.4. For the same compound, the IC50 in series [3] was 63.1 nM.
